Assay: RP, Merck Supelco Ascentis Express C18, 150 × 2.1 mm, 2.7 µm, 55 °C, 0.26 mL/min, estimated dead time 1.3 min; A: 60% water + 40% acetonitrile + 0.1% formic acid + 10 mM ammonium formate; B: 10% acetonitrile + 90% isopropanol + 0.1% formic acid + 10 mM ammonium formate; gradient (min/%B) 0/32 1.5/32 4/45 5/52 8/58 11/66 14/70 18/75 21/97 25/97 25.1/32 30/32
Details: stereoisomer not certain

Structure (SMILES)	LC retention time
CC(CCC(=O)O)C1CCC2C3C(O)CC4CC(O)CCC4(C)C3CC(O)C12C (centres undefined) [CA]	2.2 min
CCC(C=CC(C)C1CCC2C3CC=C4CC(O)CCC4(C)C3CCC12C)C(C)C (centres undefined) [stigmasterol]	16 min
CCC(CCC(C)C1CCC2C3CC=C4CC(O)CCC4(C)C3CCC12C)C(C)C (centres undefined) [BSitosterol]	16.6 min
CC(CCC(=O)O)C1CCC2C3CCC4CC(O)CCC4(C)C3CC(O)C12C (centres undefined) [DCA]	3.5 min
C=C(C)C1CCC2(C)CCC3(C)C(CCC4C5(C)CCC(O)C(C)(C)C5CCC43C)C12 (centres undefined) [lupeol]	15.2 min
CC(C)CCCC(C)C1CCC2C3CC=C4CC(O)CCC4(C)C3CCC12C (centres undefined) [CHOLESTEROL]	15.3 min
NC(COP(=O)(O)O)C(=O)O (centres undefined) [PS]	14.9 min
CC(CCC(=O)NCC(=O)O)C1CCC2C3CCC4CC(O)CCC4(C)C3CCC12C (centres undefined) [G-LCA]	2.9 min
CC(C)CCCC(C)C1CCC2C3CCC4CCCCC4(C)C3CCC12C (centres undefined) [5alfa-colestane]	9.2 min
CC(CCC(=O)NCC(=O)O)C1CCC2C3CCC4CC(O)CCC4(C)C3CC(O)C12C (centres undefined) [G-DCA]	2.1 min
CC1CCC2(CO)CCC3(C)C(=CCC4C5(C)CCC(O)C(C)(C)C5CCC43C)C2C1C (centres undefined) [uvaol]	7.6 min
CC(C)C(C)CCC(C)C1CCC2C3CC=C4CC(O)CCC4(C)C3CCC12C (centres undefined) [campesterol]	16 min
CC(CCC(=O)O)C1CCC2C3CCC4CC(O)CCC4(C)C3CCC12C (centres undefined) [LCA]	5.6 min
CC(CCC(=O)O)C1CCC2C3CC(O)C4CC(O)CCC4(C)C3CCC12C (centres undefined) [HDCA]	2.1 min
CC(CCC(=O)O)C1CCC2C3C(O)C(O)C4CC(O)CCC4(C)C3CCC12C (centres undefined) [MCA]	1.9 min
CC(C)C(C)C=CC(C)C1CCC2C3CC=C4CC(O)CCC4(C)C3CCC12C (centres undefined) [brassicasterol]	15.1 min
CC(C)=CCCC(C)C1CCC2C3CC=C4CC(O)CCC4(C)C3CCC12C (centres undefined) [desmosterol]	13.8 min
CCC(CCC(C)C1CCC2C3CC=C4CC(OC5OC(CO)C(O)C(O)C5O)CCC4(C)C3CCC12C)C(C)C (centres undefined) [betaSitosterolglucoside]	12.6 min
NC(CF)(C(=O)O)C(O)CCc1ccccc1 (centres undefined) [T-LCA]	2 min
CC(CCC(=O)NCCS(=O)(=O)O)C1CCC2C3CCC4CC(O)CCC4(C)C3CC(O)C12C (centres undefined) [T-DCA]	1.6 min
CC(CCC(=O)NCC(=O)O)C1CCC2C3C(O)CC4CC(O)CCC4(C)C3CC(O)C12C (centres undefined) [G-CA]	1.6 min
CCC=CCC=CCC=CCC=CCC=CCC=CCCC(=O)O [DocosahexaenoicAcid]	8.4 min
CC(C)=CCCC(C)C1CCC2(C)C3=C(CCC12C)C1(C)CCC(O)C(C)(C)C1CC3 (centres undefined) [lanosterol]	15 min
CC(C)CCCC(C)C1CCC2C3CC4OC45CC(O)CCC5(C)C3CCC12C (centres undefined) [Chol_Epoxide]	12.8 min
CC(=O)C1CCC2C3CCC4=CC(=O)CCC4(C)C3CCC12C (centres undefined) [Progesterone]	2.7 min
CC(C)CCCC(C)C1CCC2C3CCC4CC(O)CCC4(C)C3CCC12C (centres undefined) [Cholestanol]	11.3 min
CC(C)C(C)C=CC(C)C1CCC2C3=CC=C4CC(O)CCC4(C)C3CCC21C (centres undefined) [ergosterol]	14.2 min

The next lines start with the values.

LC retention time	Structure (SMILES)
10.3 min	CCCCCCC=CCCCCCCCCCC(=O)O [cis-vaccenic_acid]
8.8 min	CCCCCCCCC=CCCCCCCCC(=O)OCC(O)CO (stereo not drawn) [1oleoyl_rac_GL]
5.4 min	CCCCCCCCCCCCCCCC(=O)OC(CC(=O)[O-])C[N+](C)(C)C (centres undefined) [C16-CAR]
14 min	CCCCCCCCC=CCCCCCCCCCCCC(=O)O [erucic acid]
13.9 min	CCCCCCCCCCCCCCCCCCCC(=O)O [arachidic acid]
12.2 min	CCCCCCCC/C=C\CCCCCCCCCC(=O)O [cis-11-eicosenoic acid]
10.3 min	CCCCCCCCC=CCCCCCCCC(=O)O [oleic_acid]
19.4 min	CCCCCCCCCCCCCC=CC(O)C(CO)NC(=O)CCCCCCCCCCCCCCCCC (centres undefined) [CER_893]
5.9 min	CCCCCCCCCCCCCCCC(=O)OCC(O)COP(=O)([O-])OCC[N+](C)(C)C (centres undefined) [1-palmitoyl-sn-glycero-3PC]
9.9 min	CCCCCCCCCCCCCCCC(=O)O [palmitic_acid]
8.9 min	CCCCC/C=C\C/C=C\CCCCCCCC(=O)O [linoleic acid]
17.4 min	CCCCCCCCC=CCCCCCCCC(=O)OCC(COP(=O)(O)OCCN)OC(=O)CCCCCCCC=CCCCCCCCC (centres undefined) [1,2dioleoyl_PE]
15.7 min	CCCCCCCCC=CCCCCCCCC(=O)OCC(COP(=O)(O)OCC(O)CO)OC(=O)CCCCCCCC=CCCCCCCCC (centres undefined) [1,2dioleoyl_GLP_Na]
24.9 min	CCCCCCCCCCCCCCCCCC(=O)OCC(COC(=O)CCCCCCCCCCCCCCCCC)OC(=O)CCCCCCCCCCCCCCCCC [glyceryltristearate]
8 min	CCCCCCCCCCCCCC(=O)O [MirysticAcid]
5.8 min	CCCCCCCCC=CCCCCCCCC(=O)OC(CC(=O)[O-])C[N+](C)(C)C (centres undefined) [Oleoyl-CAR]

LC retention time	Structure (SMILES)
8.4 min	CCCCCCC=CCCCCCCCC(=O)O [palmitoleic_acid]
15.8 min	CCCCCCCCCCCCCCCCCCCCCC(=O)O [BehenicAcid]
11 min	CCCCCCCCCCCCCCCCC(=O)O [margaric acid]
24.2 min	CCCCCCC=CCCCCCCCC(=O)OCC(COC(=O)CCCCCCCC=CCCCCCC)OC(=O)CCCCCCCC=CCCCCCC (centres undefined) [glyceryltripalmitoleate]
17.8 min	CCCCCCCCCCCCCCCCCCCCCCCC(=O)O [lignoceric acid]
14.7 min	CCCCCC=CCC=CCCCCCCCC(=O)OCC(COP(=O)(O)OCC[N+](C)(C)C)OC(=O)CCCCCCCC=CCC=CCCCCC (centres undefined) [1,2dilinoleoyl_PC]
6.6 min	CCCCC=CCCCCCCCC(=O)O [MiristoleicAcid]
24.2 min	CCCCCCCCCCCCCCCC(=O)OCC(COC(=O)CCCCCCCCCCCCCCC)OC(=O)CCCCCCCCCCCCCCC [glyceryltripalmitate]
17 min	CCCCCCCCC=CCCCCCCCC(=O)OCC(COP(=O)([O-])OCC[N+](C)(C)C)OC(=O)CCCCCCCC=CCCCCCCCC (centres undefined) [1,2dioleoyl_PC]
12 min	CCCCCCCCCCCCCCCCCC(=O)O [StearicAcid]
7.6 min	CCCCCC=CCC=CCCCCCCCC(=O)OCC(O)CO (racemic) [1linoleoyl-rac-GL]
24.2 min	CCCCCCCCC=CCCCCCCCC(=O)OCC(COC(=O)CCCCCCCC=CCCCCCCCC)OC(=O)CCCCCCCC=CCCCCCCCC (centres undefined) [glyceryltrioleate]
23.6 min	CCCCCC=CCC=CCCCCCCCC(=O)OCC(COC(=O)CCCCCCCC=CCC=CCCCCC)OC(=O)CCCCCCCC=CCC=CCCCCC (centres undefined) [Glyceryltrilinoleate]
7 min	CCCCCCC=CCCCCCCCC(=O)OCC(O)CO (racemic) [1monopalmitoleoyl-rac-GL]
7.8 min	CCC=CCC=CCC=CCCCCCCCC(=O)O [linolenic acid]
4.3 min	CCCCCCCCCCCCCC=CC(O)C(N)CO [D-sphingosine]

From the RepoRT retention time repository (doi:10.1016/j.talanta.2015.03.003)
